Measurements from patent publication US8481553B2, “Antimetastatic compounds” (Brigham Young University, priority 2010, dated 2013).

Tested on: MDCK cells
Assay: HGF-induced epithelial-mesenchymal transition / migration of MDCK cells on transwell filters (crystal violet densitometry)
Type: cell-based
Details: test compound 10 μM, then HGF, 24 hours, percentage value like the untreated controls (unstimulated cells = maximal effect, HGF treated cells without compound = nil effect); for inhibition at 10 µM: Canis lupus familiaris, MDCK
Method: MDCK cells were seeded at confluency into the wells of a transwell filter in DMEM with 10% fetal bovine serum. Cells were cultured for 24 hours. Test compounds, dissolved in DMSO, were added to each test well to a 10 μM final concentration, and then hepatocyte growth factor (HGF) was then added. The MDCK cells were cultured for 24 hours. Concurrently, controls treated with and without HGF and with no test compounds were also prepared.
After post-HGF addition culturing, transwell filters were prepared by repeated washing using ice cold PBS. The cells were then fixed with paraformaldehyde (3.7%) on ice for 15 minutes to the filters. After fixation, the transwell filters were washed repeatedly with PBS followed by staining with crystal violet for 15 minutes. The transwell filters were washed again with distilled water.
The upper surface of the transwell filters were swabbed using a cotton-tipped probe. The filters were photographed using a gel documentation system. Densitometry measurements were made on the test samples and compared with control samples.

| SMILES | inhibition at 10 µM | Assay Value |
| --- | --- | --- |
| C=CCc1ccccc1OCC(=O)N/N=C/c1ccc(Cl)cc1 [Compound 2] | 67.3% |  |
| O=c1[nH]c(/C=C/c2ccccc2)nc2sc3c(c12)CCCC3 [Compound A-4] | 90.8% |  |
| CC(C)Oc1ccc(/C=C/c2ccc3cccc(O)c3n2)cc1 [Compound B-31] | 100% |  |
| CCOc1ccc(/C=C/c2ccc3cccc(OC)c3n2)cc1OC [Compound B-5] | > 5% |  |
| O=C(COc1ccc2ccccc2c1)N/N=C/c1ccccc1 [Compound 31] |  | <5% |
| CCc1ccc(/C=C/c2ccc3cccc(O)c3n2)cc1 [Compound B-26] | 81.1% |  |
| Cc1cccc(OCC(=O)N/N=C/c2cccc(I)c2)c1 [Compound 16] |  | <5% |
| CCc1ccccc1OCC(=O)N/N=C/c1ccc(Br)cc1 [Compound 14] | 100% |  |
| COc1cccc(/C=N/NC(=O)COc2cc(C)ccc2C(C)C)c1 [Compound 24] |  | <5% |
